The values below come from publication PMC11395096, “Study of Pentacyclic Triterpenes from Lyophilised Aguaje: Anti-Inflammatory and Antioxidant Properties” (International Journal of Molecular Sciences, 2024).

Starred links: 1 amine or outer side, 2 acyl side, 3 side chain; linkers in the order of their positions; H or OH if unused. Positions of bridges follow the written chain, without caps; N, C: chain ends. Non-standard residues stand in square brackets, D forms with d. Residues, ends and D or L forms follow the SMILES beside them. Chains are numbered I, II in the order given. Actinocin(9to1) = Cc1c2oc3c(C)ccc(C(=O)[*:1])c3nc-2c(C(=O)[*:2])c(N)c1=O; NMeV = CN[C@H](C(=O)O)C(C)C; Sar = CNCC(=O)O

For data set [1], the system named is NF-κB. On the set-up: method as in PMID 24853120, PMID 15668926. The following applies: cited from earlier work.
Data set [2] is described as follows: NR (neutral red) viability assay, IC-21 cells. Conditions: mouse, IC-21, 72 h. Format: cell-based, Mus musculus. An excerpt:
(§1) The IC-21 (Mus musculus macrophage cells, TIB-186) and RAW 264.7 (Mus musculus macrophage cells, TIB-71) cell lines used in this study were obtained from the American Type Culture Collection (ATCC, Manassas, VA, USA). The selection of IC-21 and RAW 264.7 cell lines for studies on inflammation and antioxidant activity is based on two main reasons: the cell type and their origin. Firstly, both IC-21 and RAW 264.7 cell lines are macrophages, which play a crucial role in the immune system, being essential for the inflammatory response and regulation of oxidative stress. These cells have the capacity to produce pro-inflammatory cytokines, express transcription factors such as NF-κB, and generate NO, making them ideal models to understand inflammatory mechanisms. Moreover, macrophages are involved in the activation of Nrf2, a transcription factor critical for the antioxidant response, allowing these cell lines to enable a comprehensive assessment of antioxidant activity within an inflammatory context.
(§2) Cultivated in a Roswell Park Memorial Institute (RPMI) 1640 medium (RPMI 1640 Sigma-Aldrich, CAS No. R7755, St. Louis, MO, USA) supplemented with 2 mM L-glutamine (≥99% Sigma-Aldrich, CAS No. 56-85-9, St. Louis, MO, USA), 10% foetal bovine serum (FBS Sigma-Aldrich, CAS No. TMS-016, St. Louis, MO, USA), and 10,000 units of penicillin and 10 mg streptomycin mL^−1 (Sigma-Aldrich, CAS No. P4333, St. Louis, MO, USA) in culture flasks, the cells were maintained in an incubator under normoxic conditions (20–21% O2) and a humidified atmosphere (5% CO2, at 37 °C).
(§3) Stock solutions of the samples (extracts and compounds) were prepared at a concentration of 1 mM using dimethyl sulfoxide (DMSO ≥ 99.9% Sigma-Aldrich, CAS No. 67-68-5, St. Louis, MO, USA) as the solvent. Dilutions from these stock solutions were then made to achieve concentrations between 100 and 0.20 μg mL^−1 or μM in the culture medium, which contained 0.5% DMSO. A control group consisting only of the culture medium with 0.5% DMSO was also included to determine its potential cytotoxicity.
(§4) The 50% cytotoxic concentration (CC50), 50% inhibitory concentration (IC50), and half-maximal effective concentration (EC50) values were calculated using the sigmoidal dose–response function. All experiments were conducted in triplicate, and the data obtained were expressed as the mean and standard deviation. A two-way analysis of variance (ANOVA) combined with Dunnett’s multiple comparisons test (p < 0.001) was performed for the cytotoxicity, NF-κB inhibition, NO inhibition and Nrf2 activation assays, while a one-way ordinary ANOVA combined with Dunnett’s multiple comparisons test (p < 0.001) was conducted for the SOD assay. All statistical analyses were performed using GraphPad Prism version 10.0.0 (La Jolla, CA, USA, www.graphpad.com, accessed on 28 August 2024).
(§5) Cell viability was evaluated using a colorimetric assay in 96-well plates, employing 3-amino-7-dimethylamino-2-methylphenazine hydrochloride salt reagent (NR, Sigma-Aldrich, CAS No. 553-24-2, St. Louis, MO, USA). ACTD (≥95% Sigma-Aldrich, CAS No. 50-76-0, St. Louis, MO, USA) was used as a positive control, with a CC50 value of 0.01 μg mL^−1 for the extracts, or 0.008 μM for the compounds. The IC-21 and RAW 264.7 cell lines were cultured in 96-well plates at 37 °C with 5% CO2 until >90% confluency was achieved (1 × 10^4 cells per well). Subsequently, the cultures were treated with sample dilutions (100–0.20 μg mL^−1 or μM) for 72 h at 37 °C with 5% CO2 in phenol red-free RPMI. The supernatant was then discarded, and the cells were washed with phosphate-buffered saline (PBS) before being incubated with […] NR (50 μg mL^−1; 173 μM) for 3 h at 37 °C with 5% CO2. NR labelling was performed after DMSO treatment. […]

The nature of data set [3]: NR viability assay, value not assigned to one cell line. The following applies: mouse. Format: cell-based, Mus musculus. On the procedure:
(§6) Cell viability was evaluated using a colorimetric assay in 96-well plates, employing 3-amino-7-dimethylamino-2-methylphenazine hydrochloride salt reagent (NR, Sigma-Aldrich, CAS No. 553-24-2, St. Louis, MO, USA). ACTD (≥95% Sigma-Aldrich, CAS No. 50-76-0, St. Louis, MO, USA) was used as a positive control, with a CC50 value of 0.01 μg mL^−1 for the extracts, or 0.008 μM for the compounds. The IC-21 and RAW 264.7 cell lines were cultured in 96-well plates at 37 °C with 5% CO2 until >90% confluency was achieved (1 × 10^4 cells per well). Subsequently, the cultures were treated with sample dilutions (100–0.20 μg mL^−1 or μM) for 72 h at 37 °C with 5% CO2 in phenol red-free RPMI. The supernatant was then discarded, and the cells were washed with phosphate-buffered saline (PBS) before being incubated with […] NR (50 μg mL^−1; 173 μM) for 3 h at 37 °C with 5% CO2. NR labelling was performed after DMSO treatment. After incubation, the labelled sample dilutions were rapidly washed with a fixative solution composed of 1% calcium chloride (CaCl2 Sigma-Aldrich, CAS No. 10043-52-4, St. Louis, MO, USA) and 0.5% formaldehyde solution (≥36.0% in H2O Sigma-Aldrich, CAS No. 50-00-0, St. Louis, MO, USA), then diluted with 100 μL of the NR extraction solution. Finally, the plates were read at 540 nm using a microplate reader (Anthos 2020, version 2.0.5, Biochrom Ltd., Cambridge, UK).

The test system of data set [4] is IC-21 and RAW 264.7 cell lines. The data set is described as above. It is filed as cell-based, Mus musculus. Conditions: across IC-21 and RAW 264.7 / cell line not given, compounds series. Here is the method:
as §6

Data set [5] in a line: NR (neutral red) viability assay, RAW 264.7 cells. Format: cell-based, Mus musculus. The following applies: mouse, RAW 264.7, 72 h.
From the text: as §1, §2, §3, §4, §5

The subject of data set [6] is Nrf2. Conditions: cited from earlier work.

As for `COc1cc(/C=C/C(=O)CC(=O)/C=C/c2ccc(O)c(OC)c2)ccc1O` [curcumin], the “concentration capable of inhibiting NF-κB activation” value in data set [1] is 10 to 50 µM.
As for `Cc1c2oc3c(C)ccc(C(=O)N[C@@H]4C(=O)N[C@H](C(C)C)C(=O)N5CCC[C@H]5C(=O)N(C)CC(=O)N(C)[C@@H](C(C)C)C(=O)O[C@@H]4C)c3nc-2c(C(=O)N[C@@H]2C(=O)N[C@H](C(C)C)C(=O)N3CCC[C@H]3C(=O)N(C)CC(=O)N(C)[C@@H](C(C)C)C(=O)O[C@@H]2C)c(N)c1=O` [ACTD, actinomycin D, reference compound] (I: T[dV]P[Sar][NMeV] / II: T[dV]P[Sar][NMeV]; ester I:1-I:C, II:1-II:C; linker I:N-II:N via Actinocin(9to1)), the CC50 (commonly the concentration that lowers cell viability or growth by half) at 72 h in data set [2] (compounds series) is 8.5 nM; in data set [2] (extracts series), 0.0143 µg/mL; in data set [3] (across IC-21 and RAW 264.7 / cell line not given, compounds series), 8.5 to 8.8 nM; in data set [3] (cell line not stated, extracts series), 0.01 µg/mL; in data set [5] (compounds series) it was 8.8 nM; in data set [5] (extracts series), 0.0193 µg/mL. Moreover, in data set [4], half-maximal cytotoxicity (CC50) was put at 8 nM.
In the case of `O=c1c(O)c(-c2ccc(O)c(O)c2)oc2cc(O)cc(O)c12` [quercetin], the “concentration capable of inhibiting NF-κB activation” value in data set [1] is 25 to 100 µM.
In the case of `C[S+]([O-])CCCCN=C=S` (stereo not shown) [sulforaphane], the “concentration activating the Nrf2 signalling pathway” value in data set [6] is 5 to 20 µM.
